Reference: patent publication US8278072B1, “Method for synthesis of sialylated products using reversible sialylation” (Health Research, Inc., priority 2007, dated 2012)
Structures can show the parent of a compound that is named as a salt. Where two headings read alike, the source gives them in different places.

What was measured:
Assay type in all cases: biochemical
ST6Gal-I = molecular target: T1, ST6Gal-I (Rattus norvegicus, UniProt P13721); assay: CMP-NeuAc / UMP-NeuAc formed by reverse sialylation as sialyl donor, ST6Gal-I activity; details: acceptor 2.5 mM Galβ1,4GlcNAcβ-O-Bn; donor [3] 0.0625 mM, 8 mM 5′-CMP or 5′-UMP, ST3Gal-II plus ST6GalI, 4 h
T1 construct: purchased Calbiochem
T1 sequence (P13721 1-403): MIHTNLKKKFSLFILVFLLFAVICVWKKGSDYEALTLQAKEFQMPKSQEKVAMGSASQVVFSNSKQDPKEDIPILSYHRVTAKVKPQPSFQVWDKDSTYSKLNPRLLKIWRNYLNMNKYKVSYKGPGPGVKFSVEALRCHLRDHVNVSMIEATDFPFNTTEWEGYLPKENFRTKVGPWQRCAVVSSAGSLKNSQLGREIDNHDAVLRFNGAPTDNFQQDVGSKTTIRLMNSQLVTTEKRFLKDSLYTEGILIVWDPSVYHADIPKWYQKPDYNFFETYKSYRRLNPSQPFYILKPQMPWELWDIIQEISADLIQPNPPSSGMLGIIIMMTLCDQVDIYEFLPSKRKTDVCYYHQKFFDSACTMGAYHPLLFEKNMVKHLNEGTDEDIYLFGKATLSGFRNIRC

ST3Gal-II [1] = molecular target: T2, ST3Gal-II (Rattus norvegicus, UniProt Q11205); assay: CMP-NeuAc / UMP-NeuAc formed by reverse sialylation as sialyl donor, ST3Gal-II activity; details: acceptor 2.5 mM D-Fucβ1,3GalNAcα-O-Bn; donor [3] 0.0625 mM, 8 mM 5′-CMP or 5′-UMP, 4 h, blank subtracted
T2 construct: purchased Calbiochem
T2 sequence (Q11205 1-350): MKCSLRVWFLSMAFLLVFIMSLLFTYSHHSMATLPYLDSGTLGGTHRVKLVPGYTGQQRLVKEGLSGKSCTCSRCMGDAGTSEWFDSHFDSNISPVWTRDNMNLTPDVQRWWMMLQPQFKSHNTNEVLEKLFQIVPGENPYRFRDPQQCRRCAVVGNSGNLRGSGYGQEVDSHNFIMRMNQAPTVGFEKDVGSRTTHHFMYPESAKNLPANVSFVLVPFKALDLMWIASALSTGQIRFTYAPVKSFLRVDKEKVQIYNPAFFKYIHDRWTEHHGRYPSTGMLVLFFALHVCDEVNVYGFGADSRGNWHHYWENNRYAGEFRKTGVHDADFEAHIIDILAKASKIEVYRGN

ST3Gal-III = molecular target: T3, ST3Gal-III (Rattus norvegicus, UniProt Q02734); assay: CMP-NeuAc / UMP-NeuAc formed by reverse sialylation as sialyl donor, ST3Gal-III activity; details: acceptor 2.5 mM 4-O-MeGalβ1,4GlcNAcβ-O-Bn; donor [3] 0.0625 mM, 8 mM 5′-CMP or 5′-UMP, ST3Gal-II plus ST3Gal-III, 4 h
T3 construct: purchased Calbiochem
T3 sequence (Q02734 1-374): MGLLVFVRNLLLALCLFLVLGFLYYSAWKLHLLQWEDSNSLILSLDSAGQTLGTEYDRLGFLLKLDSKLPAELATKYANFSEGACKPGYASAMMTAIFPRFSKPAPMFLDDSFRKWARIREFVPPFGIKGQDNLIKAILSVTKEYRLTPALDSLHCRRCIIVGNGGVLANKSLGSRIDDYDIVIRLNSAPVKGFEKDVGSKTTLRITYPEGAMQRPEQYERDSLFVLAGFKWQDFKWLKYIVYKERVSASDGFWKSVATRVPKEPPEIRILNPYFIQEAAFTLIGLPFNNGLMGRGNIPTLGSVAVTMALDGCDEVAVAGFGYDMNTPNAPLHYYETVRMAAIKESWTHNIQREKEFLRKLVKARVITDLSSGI

[2] = molecular target: T4, ST3Gal II (Cloned rat liver) (Rattus norvegicus, UniProt Q11205); assay: Forward (direct) sialyltransferase activity, ST3Gal-II
T4 construct: purchased Calbiochem
T4 sequence (Q11205 1-350): T2 sequence (Q11205 1-350)
Experimental: (§1) FIG. 5. Effect of 5′-nucleotides on direct sialyltransferase activity (panel a) and reverse sialylation (panel b). a. Varying concentrations of 5′-CDP or 5′-CMP were added to 100 mM acceptor (specified below), 0.15 mM CMP-[9-^3H]NeuAc and either ST3Gal-II (0.2 mU), ST3Gal-III (0.5 mU) or ST6Gal-I (0.2 mU) for 4 h at 37° C. Products were separated using Sep-Pak C18 method. ST3Gal-III activity was measured using acceptor 4-O-MeGalβ1,4GlcNAcβ-O-Bn in the presence of 5′-CDP (●) and 5′-CMP (◯). ST6Gal-I activity was measured using Gal β1,4GlcNAcβ-O-Bn in the presence of 5′-CDP (▴) and 5′-CMP (Δ). ST3Gal-II using D-Fucβ1,3GalNAcα-O-Bn in the presence of 5′-CDP (▪) and 5′-CMP (□). b) Reverse sialylation by ST3Gal-II was measured in reaction mixtures containing 0.2 mM [9-^3H] [3], 7 mM 5′-CMP, ST3Gal-II (2 mU), D-Fucβ1,3GalNAcα-OBn (3.0 mM) and varying doses of either 5′-CDP (▴), 5′-UMP (◯) or 2-deoxy 5′-CMP (●) for 4 hours at 37° C. Reaction product ([9-^3H]NeuAcα2,3DFucβ1,3 GalNAcα-O-Bn) was isolated using Sep-Pak C18 method. In some runs, where was absent, the amount of CMP-NeuAc produced was quantified using the Dowex-1 Formate method in the presence of varying doses of 5′-CDP (▪).
(§2) Besides pH other distinctions were also observed between forward and reverse sialylation. In this regard, citrate ions tended to inhibit forward sialylation but not reverse sialylation activity (Table V). For these studies, the effect of citrate on the forward sialylation activity of ST3Gal-I, ST3Gal-II, ST3Gal-III and ST6Gal-I was examined. Reverse sialylation activity of ST3Gal-II was also measured in terms of: i) the formation of CMP-NeuAc from 5′-CMP; and ii) the transfer of NeuAc from this newly synthesized CMP-NeuAc to another O-glycan. From the data (Table V), it is evident that citrate inhibits the direct sialylation activity of all the enzymes mentioned above. However, both the synthesis of CMP-[9-^3H]NeuAc from 5′-CMP as well as the synthesis of [9-^3H]NeuAcα2,3D-Fucβ1,3 GalNAcα-O-Bn using the newly formed CMP-[9-^3H]NeuAc through reverse sialylation of ST3Gal-II was not inhibited by citrate.
(§3) The effect of 5′-nucleotides on forward sialylation (FIG. 5a) and reverse sialylation (FIG. 5b) were examined. […] The overall formation of [9-^3H]NeuAcα2,3D-Fucβ1,3 GalNAcα-O-Bn by the two-step reverse sialylation process, however, was inhibited by 5′-CDP and this is consistent with the finding that 5′-CDP inhibits forward sialylation in the second step.

ST3Gal-II [3] = molecular target: T2, ST3Gal-II; assay: Reverse sialylation by ST3Gal-II in presence of citrate or 5′-nucleotides; details: for inhibition at 40000 µM: 40 mM citrate, donor [3]
Experimental: as §1, §2, §3

[4] = molecular target: T5, ST3Gal III (Cloned rat liver) (Rattus norvegicus, UniProt Q02734); assay: Forward (direct) sialyltransferase activity, ST3Gal-III
T5 construct: purchased Calbiochem
T5 sequence (Q02734 1-374): T3 sequence (Q02734 1-374)
Experimental: as §1, §2, §3

[5] = molecular target: T6, ST6Gal I (Cloned rat liver) (Rattus norvegicus, UniProt P13721); assay: Forward (direct) sialyltransferase activity, ST6Gal-I
T6 construct: purchased Calbiochem
T6 sequence (P13721 1-403): T1 sequence (P13721 1-403)
Experimental: as §1, §2, §3

ST3Gal I (Cloned Human) = molecular target: T7, ST3Gal I (Cloned Human) (Homo sapiens, UniProt Q11201); assay: Forward (direct) sialyltransferase activity, ST3Gal I
T7 sequence (Q11201 1-340): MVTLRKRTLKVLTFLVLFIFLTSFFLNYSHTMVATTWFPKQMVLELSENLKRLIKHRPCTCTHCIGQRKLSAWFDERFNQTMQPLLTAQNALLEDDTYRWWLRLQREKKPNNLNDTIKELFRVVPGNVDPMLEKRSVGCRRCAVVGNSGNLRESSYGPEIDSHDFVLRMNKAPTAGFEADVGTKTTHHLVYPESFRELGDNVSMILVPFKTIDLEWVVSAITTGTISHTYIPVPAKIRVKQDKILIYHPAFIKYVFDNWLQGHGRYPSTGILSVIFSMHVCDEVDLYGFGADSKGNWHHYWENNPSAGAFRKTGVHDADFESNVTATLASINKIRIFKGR
Experimental: as §2

[6] = acceptor Galβ1,3GalNAcβ-O-Al 1.0 mM, 0.15 mM CMP-[9-3H]NeuAc, 4 hours

| Incorporation of [9-3H]NeuAc into the acceptor, ST6Gal-I activity (ST6Gal-I) [CPM] | Incorporation of [9-3H]NeuAc into the acceptor, ST3Gal-II activity (ST3Gal-II [1]) [CPM] | Incorporation of [9-3H]NeuAc into the acceptor, ST3Gal-III activity (ST3Gal-III) [CPM] | SMILES | inhibition at 40000 µM ([2]; 40 mM citrate, acceptor Galβ1,3GalNAcβ-O-Al) [%] | Activity (Incorporation of [9-3H]NeuAc) with citrate (40 mM) [2, 6] [CPM] | inhibition at 40000 µM (ST3Gal-II [3]; read-out: Inhibition of synthesis of CMP-[9-3H]NeuAc from 5′-CMP) [%] | inhibition at 40000 µM (ST3Gal-II [3]; read-out: Inhibition of synthesis of [9-3H]NeuAcα2,3D-Fucβ1,3GalNAcα-OBn through 5′-CMP) [%] | Activity (Incorporation of [9-3H]NeuAc) with citrate (40 mM): synthesis of [9-3H]NeuAcα2,3D-Fucβ1,3GalNAcα-OBn through 5′-CMP (ST3Gal-II [3]; donor […] [3], 20 mM 5′-CMP, 3.0 mM D-Fucβ1,3GalNAcα-OBn, 4 hours) [CPM] | Activity (Incorporation of [9-3H]NeuAc) with citrate (40 mM): synthesis of CMP-[9-3H]NeuAc from 5′-CMP (ST3Gal-II [3]; donor […] [3], 20 mM 5′-CMP, 5.0 mU ST3Gal-II, 4 hours) [CPM] | inhibition at 40000 µM ([4]; 40 mM citrate, acceptor 4-O-MeGalβ1,4GlcNAcβ-O-Bn) [%] | Activity (Incorporation of [9-3H]NeuAc) with citrate (40 mM) ([4]; acceptor 4-O-MeGalβ1,4GlcNAcβ-O-Bn 1.0 mM, 0.15 mM CMP-[9-3H]NeuAc, 4 hours) [CPM] | inhibition at 40000 µM ([5]; 40 mM citrate, acceptor Galβ1,4GlcNAcβ-O-Bn) [%] | Activity (Incorporation of [9-3H]NeuAc) with citrate (40 mM) ([5]; acceptor Galβ1,4GlcNAcβ-O-Bn 1.0 mM, 0.15 mM CMP-[9-3H]NeuAc, 4 hours) [CPM] | inhibition at 40000 µM (ST3Gal I (Cloned Human)) [%] | Activity (Incorporation of [9-3H]NeuAc) with citrate (40 mM) (ST3Gal I (Cloned Human); [6]) [CPM] |
| --- | --- | --- | --- | --- | --- | --- | --- | --- | --- | --- | --- | --- | --- | --- | --- |
| 182 | 1243 | 3804 | CC(=O)NC1C(O)CC(OP(=O)(O)OCC2OC(n3ccc(=O)[nH]c3=O)C(O)C2O)(C(=O)O)OC1C(O)C(O)CO (stereo not drawn) [UMP-NeuAc] |  |  |  |  |  |  |  |  |  |  |  |  |
|  |  |  | O=C(O)CC(O)(CC(=O)O)C(=O)O [citrate, sodium citrate] | 48.2 | 33025 | 0 | 0 | 59131 | 48800 | 64.3 | 39115 | 92.4 | 7471 | 98.3 | 402 |
